{"source": "patent US10993936B2", "about": "“Method of treating one or more symptoms of pulmonary fibrosis by administering inhibitors of nicotinamide phosphoribotransferase” (Arizona Board of Regents on Behalf of the University of …, priority 2017, dated 2021)", "key": {"IPF fibroblasts": {"system": "IPF fibroblasts", "assay": "staurosporine-induced apoptosis in IPF lung myofibroblasts", "assay_type": "cell-based, human", "conditions": "IPF fibroblasts pre-treated with FK-866; FIG. 11B", "from_the_text": "Human lung tissue and fibroblasts were isolated from the lungs of patients with a confirmed diagnosis of IPF as previously described (18), under an approved protocol by the Institutional Review Board. Fibroblasts were isolated and evaluated for apoptosis, senescence, and ROS levels by immunofluorescence, immunohistochemistry, and/or biochemical assays.\nCells were lysed using caspase lysis buffer and analyzed for activated caspase 3 using the BioVision Caspase 3 Fluorometric Assay Kit according to the manufacturer's instructions (BioVision, Inc, Milpitas Calif.).\nNampt contributes to mouse and human IPF fibroblasts resistance to apoptosis. Staurosporine (300 nM, 8 h)-induced expression of apoptotic markers, cleaved caspase 3 and PARP (FIG. 11A) was increased in lung fibroblasts isolated from Nampt+/− compared with WT mice."}, "H2O2-induced apoptosis": {"system": "H2O2-induced apoptosis", "assay": "H2O2-induced apoptosis defined by the TUNEL assay", "assay_type": "cell-based", "conditions": "FIG. 14", "method": "Slices were first incubated with anti-αSMA overnight at 4° C. After the TUNEL protocol, slides were mounted in DAPI-containing media (Vector Labs) and cells were visualized on a Zeiss fluorescent microscope. TUNEL-positive cells were counted per field in 15-20 fields and normalized to total cells from the DAPI stain.\nFIGS. 12A-D show chemical structure of the NAMPT inhibitor, FK-866 (FIG. 12A) which is divided into three regions (FIG. 12B) and varied by replacing with N-heterocycles to generate novel FK866 analogs: MS-1-82 (FIG. 12C), Rari049 (FIG. 12D), Alpii135 (FIG. 12E); FIG. 13 is a bar graph showing normalized NAMPT activity in the present of FK866 and FK analogues MS-1-82, Rari049, Alpii135 at […] concentrations; FIG. 14 is a bar graph showing the role of Nampt enzymatic activity in H2O2-induced apoptosis defined by the TUNEL assay."}, "[1]": {"assay": "MCT-PH preventive therapy study", "assay_type": "in vivo", "conditions": "preliminary studies", "from_the_text": "To generate functional analogs of the NAMPT inhibitor FK-866, the FK-866 structure was divided into three regions and varied by replacing with N-heterocycles to generate FK866 analogs."}}}
{"smiles": "O=C(/C=C/c1cccnc1)NCCCCC1CCN(C(=O)c2ccccc2)CC1", "note": "[FK-866, (E)-N-[4-(1-Benzoylpiperidin-4-yl)butyl]-3-pyridin-3-ylprop-2-enamide]", "values": [{"measurement": "staurosporine-induced apoptosis", "setting": "IPF fibroblasts", "result": "restored apoptosis"}, {"measurement": "H2O2-induced apoptosis", "setting": "H2O2-induced apoptosis", "result": "blocks H2O2-induced apoptosis"}]}
{"smiles": "O=C(/C=C/c1cccnc1)NCCCCCCn1c(-c2ccccc2)cc2ccccc21", "note": "[Rari049]", "values": [{"measurement": "hyper-trophy-ratio of RV and LV plus septal-S weight (RVH-RV)", "setting": "[1]", "result": "reducing"}, {"measurement": "right ventricular systolic pressure (RVSP)", "setting": "[1]", "result": "reducing"}]}
